The record followed here is patent US20120189603A1, “STORAGE-STABLE, SYNERGISTIC MICROBICIDAL CONCENTRATES CONTAINING AN ISOTHIAZOLONE, AN AMINE AND AN OXIDIZING AGENT” (L"AIR LIQUIDE, SOCIETE ANONYME POUR L'ETUDE ET L' …, priority 2009, published 2012).

What all share (experiment): Germ-count reduction test, sterile town water, pH adjusted to 8.2
What all share (set-up): key: −: growth-free; +: slight growth; ++: moderate growth; +++: considerable growth; ++++: massive growth; L: lawn-like growth
Holding throughout (settings): +0.01% 2

For experiment [1], the system named is P. aeruginosa. The experiment is classed as cell-based, Pseudomonas aeruginosa. The protocol:
(§1) The pH was adjusted to 8.2 with HCl.
(§2) 24-Hour CSL cultures are prepared from 24-hour CS slant agar cultures of Staphylococcus aureus/Pseudomonas aeruginosa. Incubation takes place at 37° C.
(§3) The titre of the bacteria suspensions is ca. 10^9 CFU/ml.
(§4) A dilution series of four concentrations is prepared from the active ingredient to be tested and poured into 10 ml sterile tubes. One dilution series is required per test germ. Each tube is inoculated with 0.1 ml of the individual germ suspensions.
(§5) […] The bacteria are streaked on CSA and incubated for 48 hours at 37° C. (Pseudomonas aeruginosa and Staphylococcus aureus) or 25° C. (Pseudomonas fluorescens/Pseudomonas putida). The fungi are streaked on Sabouraud agar and incubated for 48 hours at 37° C. (Candida albicans) and 25° C. (Aspergillus niger).

The subject of experiment [2] is P. funiculosum. The experiment is classed as cell-based.
Experiment [3] has as its system S. aureus. The experiment is classed as cell-based, Staphylococcus aureus. How it is done: as §1, §2, §3, §4, §5
Experiment [4] relates to A. niger. It counts as cell-based, Aspergillus niger. The protocol: as §1
A 7-14-day-old Aspergillus niger culture on Sabouraud agar is elutriated with 5 ml of NaCl, filtered through a glass filter containing glass wool and topped up to 200 ml. This suspension has a titre of ca. 10^7 CFU/ml.
as §4, §5

The test system of experiment [5] is E. coli. The experiment is classed as cell-based.
Experiment [6] has as its system C. albicans. It counts as cell-based, Candida albicans. The protocol:
as §1
A 4-day-old Candida albicans culture (CSA+grape sugar) is elutriated with 5 ml of physiological sodium chloride solution and adjusted in accordance with a barium sulphate standard (see DVG Guideline). The titre of the Candida albicans suspension is 10^8 CFU/ml.
as §4, §5

`CCCCCCCCCCCCN(CCCN)CCCN` [compound 2, bis(aminopropyl)dodecylamine]: the growth entry in experiment [1] (1 h) is recorded as “+”; in experiment [1] (3 h), “+”; in experiment [1] (6 h) it was “−”; in experiment [1] (24 h), “−”; in experiment [2] (1 h), “−”; in experiment [2] (3 h), “−”. The growth result in experiment [2] (6 h), in experiment [2] (24 h), in experiment [3] (1 h), in experiment [3] (3 h), in experiment [3] (6 h) and in experiment [3] (24 h) was “−” throughout. Moreover, the growth result in experiment [4] (1 h) is reported as “−”; in experiment [4] (3 h), “−”; in experiment [4] (6 h) it was “−”; in experiment [4] (24 h), “−”; in experiment [5] (1 h), “+”; in experiment [5] (3 h), “−”. In addition, the growth result in experiment [5] (6 h), in experiment [5] (24 h), in experiment [6] (1 h), in experiment [6] (3 h), in experiment [6] (6 h) and in experiment [6] (24 h) was “−” throughout.
